{"source": "patent US10329315B2", "about": "“Glycosphingolipids and methods of use thereof” (The Brigham and Women's Hospital, Inc., priority 2012, dated 2019)", "system": "iNKT hybridoma 24.7", "assay": "iNKT cell activation in co-culture of BMDCs and iNKT hybridoma 24.7, IL-2 by ELISA", "type": "cell-based", "details": "incubated with BMDCs 4 hours, then iNKT hybridoma 24.7 for 24 hours", "experimental": "Experiments were performed to determine whether fractions of B. fragilis sphingolipids are immunostimulatory (agonists) to iNKT cells. Lipid fractions were extracted from BF membranes, incubated with bone marrow dendritic cells (BMDCs) for 4 hours, and then co-incubated with iNKT hybridoma 24.7 for 24 hours. IL-2 was measured by ELISA as a readout of iNKT cell activation. KRN7000 refers to the known immunostimulatory alpha-GC. Cer-SL refers to the ceramide sphingolipid fraction. PE-SL refers to the phosphoethanolamine sphingolipid fraction. GL-SL refers to the glycosphingolipid fraction. C17 minor refers to alpha-GC having a C17 ceramide chain length. […] As expected, KRN7000 was stimulatory.\nFurther studies confirmed that alpha-GC-Bf717 was detectable only in fecal samples from BFWT mice and not in samples from BFΔSPT mice. The estimated yield of alpha-GC-Bf717 was about 1 ng per gram of fecal pellet. To confirm that alpha-GC-Bf717 had antagonistic activity, co-cultures similar to those described above for bulk GL-SL fractions were performed."}
{"molecule": "CCCCCCCCCCCCCCCCCCCCCCCCCC(=O)N[C@@H](CO[C@H]1O[C@H](CO)[C@H](O)[C@H](O)[C@H]1O)[C@H](O)[C@H](O)CCCCCCCCCCCCCC", "note": "[KRN7000]", "values": [{"measurement": "iNKT cell activation (IL-2)", "value": "stimulatory"}]}
